Molecular target: Leucine-rich repeat serine/threonine-protein kinase 2 (Homo sapiens, UniProt Q5S007, G2019S)
Assay: Inhibition of recombinant human GST tagged LRRK2 G2019S mutant catalytic domain (970 to 2527 residues) expressed in baculovirus expression system using fluorescein-labeled LRRKtide as substrate preincubated for 15 mins followed by substrate addition and measured after 90 mins by TR-FRET based Lanthascreen assay

Chain of Leucine-rich repeat serine/threonine-protein kinase 2 (Q5S007 whole entry G2019S, the tested form may be a part): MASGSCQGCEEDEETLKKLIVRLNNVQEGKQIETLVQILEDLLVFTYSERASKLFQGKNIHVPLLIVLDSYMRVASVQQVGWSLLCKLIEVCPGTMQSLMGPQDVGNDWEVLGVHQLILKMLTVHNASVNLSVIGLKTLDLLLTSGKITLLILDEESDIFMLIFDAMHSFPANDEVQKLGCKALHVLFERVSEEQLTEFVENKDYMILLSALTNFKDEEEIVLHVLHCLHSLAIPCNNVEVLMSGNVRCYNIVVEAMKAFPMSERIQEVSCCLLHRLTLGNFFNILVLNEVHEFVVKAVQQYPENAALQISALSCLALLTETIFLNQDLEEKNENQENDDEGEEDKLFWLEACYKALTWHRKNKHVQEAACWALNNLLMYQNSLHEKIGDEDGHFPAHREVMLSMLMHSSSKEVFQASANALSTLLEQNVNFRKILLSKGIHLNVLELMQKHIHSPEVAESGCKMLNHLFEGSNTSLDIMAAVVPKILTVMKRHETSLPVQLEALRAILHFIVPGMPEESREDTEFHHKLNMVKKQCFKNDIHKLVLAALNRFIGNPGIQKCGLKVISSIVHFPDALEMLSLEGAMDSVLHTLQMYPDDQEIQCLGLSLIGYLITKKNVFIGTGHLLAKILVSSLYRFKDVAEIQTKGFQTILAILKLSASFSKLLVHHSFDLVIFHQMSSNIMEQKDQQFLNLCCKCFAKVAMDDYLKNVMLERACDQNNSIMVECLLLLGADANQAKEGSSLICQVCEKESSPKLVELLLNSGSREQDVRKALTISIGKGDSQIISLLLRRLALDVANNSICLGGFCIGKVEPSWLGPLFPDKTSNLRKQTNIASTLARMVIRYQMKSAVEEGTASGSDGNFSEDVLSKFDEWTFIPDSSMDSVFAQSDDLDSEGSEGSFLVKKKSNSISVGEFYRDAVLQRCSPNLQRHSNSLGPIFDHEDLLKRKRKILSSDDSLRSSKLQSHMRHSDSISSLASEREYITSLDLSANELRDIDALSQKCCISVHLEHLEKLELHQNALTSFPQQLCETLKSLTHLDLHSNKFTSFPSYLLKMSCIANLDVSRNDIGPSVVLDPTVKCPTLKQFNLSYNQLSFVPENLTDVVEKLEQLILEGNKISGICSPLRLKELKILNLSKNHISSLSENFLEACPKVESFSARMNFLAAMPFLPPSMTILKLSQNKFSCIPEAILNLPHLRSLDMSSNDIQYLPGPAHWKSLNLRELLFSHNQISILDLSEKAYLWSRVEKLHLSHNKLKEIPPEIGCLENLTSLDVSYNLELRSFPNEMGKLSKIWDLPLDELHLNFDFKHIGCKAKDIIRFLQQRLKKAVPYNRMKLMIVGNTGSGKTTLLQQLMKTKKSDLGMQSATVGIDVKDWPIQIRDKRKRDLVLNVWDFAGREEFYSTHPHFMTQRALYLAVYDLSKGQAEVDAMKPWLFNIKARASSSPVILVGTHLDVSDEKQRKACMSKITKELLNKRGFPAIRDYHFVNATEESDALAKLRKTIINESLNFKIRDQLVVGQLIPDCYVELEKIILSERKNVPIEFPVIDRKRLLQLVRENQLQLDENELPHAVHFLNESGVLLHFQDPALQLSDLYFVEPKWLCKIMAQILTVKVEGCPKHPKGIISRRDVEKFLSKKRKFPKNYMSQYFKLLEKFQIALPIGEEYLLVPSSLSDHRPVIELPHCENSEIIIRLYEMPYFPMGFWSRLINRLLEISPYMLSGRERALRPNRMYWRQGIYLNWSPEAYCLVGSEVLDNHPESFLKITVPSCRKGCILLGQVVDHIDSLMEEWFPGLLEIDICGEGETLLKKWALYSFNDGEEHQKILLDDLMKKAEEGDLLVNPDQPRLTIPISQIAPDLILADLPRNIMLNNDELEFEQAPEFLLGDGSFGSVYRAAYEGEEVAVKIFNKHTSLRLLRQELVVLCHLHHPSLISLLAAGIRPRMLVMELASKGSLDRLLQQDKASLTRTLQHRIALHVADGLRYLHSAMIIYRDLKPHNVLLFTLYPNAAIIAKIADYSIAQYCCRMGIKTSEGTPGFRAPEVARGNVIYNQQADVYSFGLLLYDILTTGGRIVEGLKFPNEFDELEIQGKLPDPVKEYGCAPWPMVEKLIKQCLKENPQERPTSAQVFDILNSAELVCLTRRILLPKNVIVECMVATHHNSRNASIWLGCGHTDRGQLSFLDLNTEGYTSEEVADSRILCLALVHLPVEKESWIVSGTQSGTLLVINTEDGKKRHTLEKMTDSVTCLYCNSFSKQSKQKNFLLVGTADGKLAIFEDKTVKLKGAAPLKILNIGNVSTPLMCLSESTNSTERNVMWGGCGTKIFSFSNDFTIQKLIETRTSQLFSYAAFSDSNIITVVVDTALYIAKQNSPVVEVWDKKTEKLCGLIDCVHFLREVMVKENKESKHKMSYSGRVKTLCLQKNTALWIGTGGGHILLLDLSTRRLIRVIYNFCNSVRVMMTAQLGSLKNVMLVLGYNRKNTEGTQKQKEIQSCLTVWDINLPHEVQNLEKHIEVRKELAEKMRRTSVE

SMILES	IC50
Cn1cc(-n2ncc3cc(Cl)c(C4CCN(C5(C)CCOC5)CC4)cc32)cn1 (stereo not drawn)	< 0.625 nM
CC1(N2CCC(c3cc4c(cnn4-c4cnn(C56CC(C#N)(C5)C6)c4)cc3Cl)CC2)COC1	< 0.625 nM
CC1(N2CCC(c3cc4c(cnn4-c4cnn(C56CC(C5)C6)c4)cc3Cl)CC2)COC1	0.71 nM

From ChEMBL document CHEMBL4706723, “Novel N-Heteroaryl Indazole Derivatives as LRRK2 Inhibitors for Treating Parkinson's Disease” (ACS Med Chem Lett, 2021)
